Several values for one entry are separate records, joined by “and”; a condition that tells them apart may be missing. Equal values may be shown once. Read-outs that look alike come from different tables or passages of the source.
Experiments:
HCoV-NL63 [1] = assay: In vitro antiviral activity assay (IFA), HCoV-NL63; format: cell-based; conditions: for Inhibition rate (IFA): Fig 5C, MOI 0.1, 48 h
MHV [2] = assay: microbe, parasite or virus in culture; format: cell-based, mouse hepatitis virus (MHV); conditions: Murine coronavirus, 24 h, read-out: EC50 (IFA)
HCoV-OC43 [3] = assay: In vitro antiviral activity assay (IFA), HCoV-OC43; format: cell-based; conditions: for Inhibition rate (IFA): Fig 5E, MOI 0.1, 48 h
HCoV-229E [4] = assay: Infection of ALI-cultured primary HBEs, HCoV-229E; format: cell-based
Description: (§1) Primary HBEs at passage 3 or earlier were seeded at a density of 40,000 cells per well in Transwell inserts (Costar 6.5 mm Transwell, 0.4 μm Pore Polyester Membrane Inserts, catalog 3470) for expansion culture. The cells were cultured in expansion medium (PneumaCult-Ex Plus Medium, catalog 05040) until tight junctions were formed. Once tight junctions were established, the expansion medium in the upper chamber was discarded, and the medium in the lower chamber was replaced with ALI differentiation medium (PneumaCult-ALI Medium, catalog 05001). Cells were maintained under ALI conditions, with the medium being changed every 2 days. The differentiation process was carried out for 21 days, during which cell morphology and differentiation status were monitored. The fully differentiated cells were infected with HCoV-OC43, HCoV-229E, HCoV-NL63, or SARS-CoV-2 (MOI = 1), and fresh medium was changed 1 hour postinfection. Specific peptide was added into the medium every 24 hours. At 96 hours postinfection, cells in Transwell inserts were washed with 140 μL PBS per insert, and the wash fluid was collected to extract virus RNA followed by RT-qPCR. […] The fluorescence was measured using ImageJ (NIH).

HCoV-OC43 [5] = assay: Infection of ALI-cultured primary HBEs, HCoV-OC43; format: cell-based
Description: as §1

HCoV-NL63 [6] = assay: Infection of ALI-cultured primary HBEs, HCoV-NL63; format: cell-based
Description: as §1

HCoV-229E [7] = tested on: HCoV-229E; design: species or system K18-hACE2 C57BL/6 mice; conditions: mouse, in vivo
HCoV-OC43 VLP = format: cell-based
MHV [8] = format: cell-based, mouse hepatitis virus (MHV); conditions: for Inhibition, combination matrix (Figure S12C): Molnupiravir 0 uM; for Inhibition, combination matrix (Figure S12D): nirmatrelvir 0 uM
MHV [9] = tested on: MHV
hHgs 1-390 protein = hHgs 1-390 protein (Homo sapiens, UniProt O14964); assay: biochemical
Chain of hHgs 1-390 protein (O14964 1-390): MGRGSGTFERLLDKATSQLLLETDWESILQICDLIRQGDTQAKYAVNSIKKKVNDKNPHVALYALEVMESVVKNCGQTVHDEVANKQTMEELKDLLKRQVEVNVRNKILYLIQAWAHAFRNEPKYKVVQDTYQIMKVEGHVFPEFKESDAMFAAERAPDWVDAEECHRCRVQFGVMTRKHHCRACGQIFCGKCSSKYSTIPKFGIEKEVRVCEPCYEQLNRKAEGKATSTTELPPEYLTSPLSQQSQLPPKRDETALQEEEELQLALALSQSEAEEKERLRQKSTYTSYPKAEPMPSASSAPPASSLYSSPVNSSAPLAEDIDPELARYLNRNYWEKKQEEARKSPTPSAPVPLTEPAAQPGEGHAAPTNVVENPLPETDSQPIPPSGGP

[10] = biological target: hHGS 1-390-6 × HIS protein (Homo sapiens, UniProt O14964); assay: biochemical
Chain of hHGS 1-390-6 × HIS protein (O14964 1-390): as above

MHV [11] = assay: microbe, parasite or virus in culture; conditions: Murine coronavirus, 24 h, read-out: EC50, rescue of coronavirus-induced cytopathic effects

Compound: CCCC(=O)OC[C@@H](OC(=O)CCC)[C@@H](OC(=O)CCC)[C@H](Cn1c2nc(=O)[nH]c(=O)c-2nc2cc(C)c(C)cc21)OC(=O)CCC [RTB, riboflavin tetrabutyrate]
- Inhibition rate (IFA) (HCoV-NL63 [1]; conc 30 (unit not given)): -14.9284% and -12.1937% and -12.3632%
- Inhibition rate (IFA) (HCoV-NL63 [1]; conc 100 (unit not given)): -16.9149% and -18.5591% and -23.768%
- Inhibition rate (IFA) (HCoV-NL63 [1]; conc 1000 (unit not given)): -12.8364% and -7.587% and -17.221%
- Inhibition rate (IFA) (HCoV-NL63 [1]; conc 10000 (unit not given)): 59.7114% and 61.0537% and 58.023%
- Inhibition rate (IFA) (HCoV-NL63 [1]; conc 25000 (unit not given)): 99.7675% and 100.17% and 100.28%
- EC50 (HCoV-NL63 [1]; Human coronavirus NL63, 48 h, read-out: EC50 (IFA)): 8.46 µM
- EC50 (MHV [2]): 11.2 µM
- EC50 (HCoV-OC43 [3]; Betacoronavirus 1, OC43, 48 h, read-out: EC50 (IFA)): 13.9 µM
- Inhibition rate (IFA) (HCoV-OC43 [3]; conc 10 (unit not given)): 33.23% and 29.76% and 39.01%
- Inhibition rate (IFA) (HCoV-OC43 [3]; conc 30 (unit not given)): 30.69% and 22.69% and 29.93%
- Inhibition rate (IFA) (HCoV-OC43 [3]; conc 100 (unit not given)): 21.56% and 24.49% and 30.14%
- Inhibition rate (IFA) (HCoV-OC43 [3]; conc 300 (unit not given)): 23.53% and 24.32% and 29.19%
- Inhibition rate (IFA) (HCoV-OC43 [3]; conc 1000 (unit not given)): 26.08% and 27.96% and 36.83%
- Inhibition rate (IFA) (HCoV-OC43 [3]; conc 3000 (unit not given)): 25.37% and 28.07% and 29.03%
- Inhibition rate (IFA) (HCoV-OC43 [3]; conc 10000 (unit not given)): 32.25% and 33.08% and 32.48%
- Inhibition rate (IFA) (HCoV-OC43 [3]; conc 25000 (unit not given)): 79.43% and 69.76% and 58.83%
- extracellular viral gRNA levels (RT-qPCR) (HCoV-229E [4]; Fig 5H, HCoV-229E MOI = 1, ALI-cultured HBEs, 96 h, RTB dose 5 (unit not given)): 7 and 6 and 8
- inhibition of infection in ALI cultures of HBEs (HCoV-229E [4]; HCoV-229E): significant, dose-dependent inhibition
- extracellular viral gRNA levels (RT-qPCR) (HCoV-OC43 [5]; Fig 5I, HCoV-OC43 MOI = 1, ALI-cultured HBEs, 96 h, RTB dose 5 (unit not given)): 24 and 18 and 15
- inhibition of infection in ALI cultures of HBEs (HCoV-OC43 [5]; HCoV-OC43): significant, dose-dependent inhibition
- extracellular viral gRNA levels (RT-qPCR) (HCoV-NL63 [6]; Fig 5J, HCoV-NL63 MOI = 1, ALI-cultured HBEs, 96 h, RTB dose 5 (unit not given)): 46 and 42 and 25
- inhibition of infection in ALI cultures of HBEs (HCoV-NL63 [6]; HCoV-NL63): significant, dose-dependent inhibition
- pulmonary viral titers (HCoV-229E [7]): lowered pulmonary viral titers
- viral gRNA (HCoV-229E [7]): significantly reduced viral gRNA
- virus-induced lung injury (HCoV-229E [7]): markedly attenuated virus-induced lung injury
- VLPs' release (HCoV-OC43 VLP): concentration-dependent inhibition
- Inhibition, combination matrix (Figure S12C) (MHV [8]; RTB 0.01 uM): -3.196
- Inhibition, combination matrix (Figure S12D) (MHV [8]; RTB 0.01 uM): 0.02357
- Inhibition, combination matrix (Figure S12C) (MHV [8]; RTB 0.03 uM): 0.4191
- Inhibition, combination matrix (Figure S12D) (MHV [8]; RTB 0.03 uM): 0.6847
- Inhibition, combination matrix (Figure S12C) (MHV [8]; RTB 0.1 uM): 5.187
- Inhibition, combination matrix (Figure S12D) (MHV [8]; RTB 0.1 uM): 4.267
- Inhibition, combination matrix (Figure S12C) (MHV [8]; RTB 0.3 uM): 0.1333
- Inhibition, combination matrix (Figure S12D) (MHV [8]; RTB 0.3 uM): 7.699
- Inhibition, combination matrix (Figure S12C) (MHV [8]; RTB 1 uM): 5.1
- Inhibition, combination matrix (Figure S12D) (MHV [8]; RTB 1 uM): 9.0154
- Inhibition, combination matrix (Figure S12C) (MHV [8]; RTB 3 uM): 12.0762
- Inhibition, combination matrix (Figure S12D) (MHV [8]; RTB 3 uM): 25.2258
- Inhibition, combination matrix (Figure S12C) (MHV [8]; RTB 10 uM): 64.6863
- Inhibition, combination matrix (Figure S12D) (MHV [8]; RTB 10 uM): 39.9859
- Inhibition, combination matrix (Figure S12C) (MHV [8]; RTB 25 uM): 94.0563
- Inhibition, combination matrix (Figure S12D) (MHV [8]; RTB 25 uM): 93.5156
- combination effect in vitro (MHV [8]; combined with molnupiravir): additive effects
- combination effect in vitro (MHV [8]; combined with nirmatrelvir): additive effects
- viability of infected cells (rescue of cytopathic effect), Figures S9G-L (MHV [9]; concentration 10): 46.6398 and 47.8192 and 45.9379
- viability of infected cells (rescue of cytopathic effect), Figures S9G-L (MHV [9]; concentration 30): 48.4931 and 47.9876 and 45.7132
- viability of infected cells (rescue of cytopathic effect), Figures S9G-L (MHV [9]; concentration 100): 49.4197 and 48.1842 and 47.2295
- viability of infected cells (rescue of cytopathic effect), Figures S9G-L (MHV [9]; concentration 300): 52.6488 and 47.5665 and 45.7132
- viability of infected cells (rescue of cytopathic effect), Figures S9G-L (MHV [9]; concentration 1000): 53.6878 and 50.8517 and 50.0094
- viability of infected cells (rescue of cytopathic effect), Figures S9G-L (MHV [9]; concentration 3000): 66.4358 and 61.915 and 62.9259
- viability of infected cells (rescue of cytopathic effect), Figures S9G-L (MHV [9]; concentration 10000): 81.009 and 81.0651 and 81.6829
- viability of infected cells (rescue of cytopathic effect), Figures S9G-L (MHV [9]; concentration 25000): 85.0805 and 84.4908 and 83.1711
- IC50 (hHgs 1-390 protein): 0.58 µM
- Kd [10]: 4.82 µM
- EC50 (MHV [11]): 3.48 µM

Source: PMC12948427 (The Journal of Clinical Investigation, 2025)
